test system: not given; assay: not given; conditions: commercially available tranquillisers or hypnotics; cited from earlier work

| Structure (SMILES) | sedative effect of known benzodiazepines |
| --- | --- |
| Cc1nnc2n1-c1ccc(Cl)cc1C(c1ccccc1Cl)=NC2 [Triazolam, triazolam, reference compound] | marked sedative effect |

test system: human thrombocytes (PAF-induced aggregation); assay: inhibition of PAF-induced aggregation of human thrombocytes in vitro; format: cell-based; conditions: Homo sapiens, PAF-induced aggregation, read-out: IC50 (concentration for a 50% inhibition of aggregation)
Procedure: The PAF-antagonistic activity of some compounds of formula I was investigated by means of the inhibition of blood platelet aggregation in vitro and the antagonising of the PAF-induced bronchoconstriction in anaesthetised guinea pigs, the lowering of blood pressure in anaesthetised rats and skin wheals in rats. Moreover, these compounds were tested for any possible side effects on the central nervous system.
1. In vitro tests: inhibition of blood platelet aggregation
In order to determine the PAF-antagonistic activity of substances, the PAF-induced aggregation of human thrombocytes in vitro was used. In order to obtain thrombocyte-rich plasma (TRP) blood was taken from an unconstricted vein using a plastic syringe containing 3.8% of sodium citrate solution. The ratio of sodium citrate solution to blood was 1:9. After careful mixing, the citrated blood was centrifuged for 20 minutes at 150×g (1200 rpm). The thrombocyte aggregation was measured using the method developed by Born and Cross (G. V. R. Born and M. J. Cross, J. Physiol. 168, 178 (1963)), in which PAF is added to the TRP with constant stirring in order to initiate aggregation.
The test substance is added 2 to 3 minutes before aggregation is induced, in a volume of 10 μl. The solvent used is either distilled water, ethanol and/or dimethylsulphoxide. The controls were given corresponding volumes of this solvent. After the initial absorption had been recorded (2 to 3 minutes) aggregation was induced with PAF (5×10^-8 M).
The maximum of the first aggregation wave is used to assess the effects of the substance. The PAF-induced maximum absorption rate (=maximum aggregation×100%) is simultaneously tested in a parallel mixture (=control mixture in one of the channels of the 2-channel aggregometer) with each test batch (second channel) and is used as the 100% value.
The level of aggregation achieved under the effect of the […] is given […].
Each test substance is tested at concentrations of from 10^-3 to 10^-8 M with a random sampling range of n=4 in order to investigate an inhibiting effect on the PAF-induced thrombocyte aggregation. A concentration-activity curve is then plotted using 3 concentrations and the IC50 is determined (concentration for a 50% inhibition of aggregation). The IC values of compounds of general formula I are generally around levels of less than 9 μM.

| Structure (SMILES) | IC50 [nM] |
| --- | --- |
| Cc1nnc2n1-c1ccc(Cl)cc1C(c1ccccc1Cl)=NC2 [Triazolam, triazolam, reference compound] | 9000 |

same assay, conditions: PAF-induced aggregation, read-out: IC50 (concentration for a 50% inhibition of aggregation)

| Structure (SMILES) | IC50 [nM] |
| --- | --- |
| Cc1nnc2n1-c1ccc(Cl)cc1C(c1ccccc1)=NC2 [Alprazolam, alprazolam, reference compound] | 14000 |

same assay, conditions: Platelet, Table A, PAF 5×10^-8 M, human thrombocyte-rich plasma, read-out: IC50 (inhibition of blood platelets)

| Structure (SMILES) | IC50 [nM] |
| --- | --- |
| CCN(CC)CCCc1cc2c(s1)-n1c(C)nnc1CN=C2c1ccccc1Cl [Example 71] | 900 |
| Cc1nnc2n1-c1sc(CCCN3CCOCC3)cc1C(c1ccccc1Cl)=NC2 [Example 11, 2-(3-(N-Morpholinyl)propyl)-4-(2-chlorophenyl)-9-methyl-6H-thieno[3,2-f][1,2,4]triazolo[4,3-a][1.4]-diazepine] | < 200 |
| Cc1nnc2n1-c1sc(CCCOC(=O)C(C)(C)C)cc1C(c1ccccc1Cl)=NC2 [Example 25] | 900 |
| Cc1nnc2n1-c1sc(CCCCCCCN)cc1C(c1ccccc1Cl)=NC2 [Example 9, 2-(7-Amino-heptyl)-4-(2-chlorophenyl)-9-methyl-6H-thieno[3,2-f][1,2,4]triazolo[4,3-a][1,4]diazepine] | 200 |
| CC(=O)OCCCc1cc2c(s1)-n1c(C)nnc1CN=C2c1ccccc1Cl [Example 2, 3-[4-(2-Chlorophenyl)-9-methyl-6H-thieno[3,2-f][1,2,4]triazolo[4,3-a][1,4]diazepin-2-yl]propyl acetate] | < 200 |
| Cc1nnc2n1-c1sc(CCCNCCN3CCOCC3)cc1C(c1ccccc1Cl)=NC2 [Example 75] | 1900 |
| Cc1nnc2n1-c1sc(CCCn3cncn3)cc1C(c1ccccc1Cl)=NC2 [Example 64] | < 200 |
| CC(=O)OCCCCCCCc1cc2c(s1)-n1c(C)nnc1CN=C2c1ccccc1Cl [Example 4, 7-[4-(2-Chlorophenyl)-9-methyl-6H-thieno[3,2-f][1,2,4]triazolo[4,3-a][1,4]diazepin-2-yl]heptyl acetate] | < 200 |
| Cc1nnc2n1-c1sc(CCCCCCC=O)cc1C(c1ccccc1Cl)=NC2 [Example 12, 2-(6-Formylhexyl)-4-(2-chlorophenyl)-9-methyl-6H-thieno[3,2-f][1,2,4]triazolo[4,3-a][1,4]diazepine] | 300 |
| Cc1nnc2n1-c1sc(CCCCCCCN3C(=O)c4ccccc4C3=O)cc1C(c1ccccc1Cl)=NC2 [Example 8, 2-(7-N-Phthalimidoheptyl)-4-(2-chlorophenyl)-9-methyl-6H-thieno[3,2-f][1,2,4]triazolo[4,3-a][1,4]-diazepine] | < 300 |
| CC(=O)OCCCCCCCc1cc2c(s1)-n1c(C)cnc1CN=C2c1ccccc1Cl [Example 58] | < 200 |
| Cc1nnc2n1-c1sc(CCCCCCCNCCN(C)C)cc1C(c1ccccc1Cl)=NC2 [Example 60] | 900 |
| Cc1nnc2n1-c1sc(CCS(=O)(=O)N3CCN(C)CC3)cc1C(c1ccccc1Cl)=NC2 [Example 1, 2-[4-(2-Chlorophenyl)-9-methyl-6H-thieno[3,2-f][1,2,4]triazolo[4,3-a][1,4]diazepin-2-yl]-ethane-1-sulphonic acid-N'-methylpiperazide] | 300 |
| CC(=O)OCCCc1cc2c(s1)-n1c(C)cnc1CN=C2c1ccccc1Cl [Example 56] | 300 |
| CC(=O)OCCCc1cc2c(s1)-n1cnnc1CN=C2c1ccccc1Cl [Example 50] | 600 |
| Cc1nnc2n1-c1sc(CCCCCCCN3CCN(C)CC3)cc1C(c1ccccc1Cl)=NC2 [Example 49] | 1000 |
| Cc1nnc2n1-c1sc(CCS(=O)(=O)N3CCOCC3)cc1C(c1ccccc1Cl)=NC2 [Example 20] | 300 |
| Cc1nnc2n1-c1sc(CC(C)C(=O)N3CCOCC3)cc1C(c1ccccc1Cl)=NC2 (stereo not shown) [Example 14i, 2-[2-(Morpholin-4-yl-carbonyl)-n-propyl]-4-(2-chlorophenyl)-9-methyl-6H-thieno[3,2-f][1,2,4]triazolo[4,3-a][1,4]diazepine] | 400 |
| CC(=O)NCCCCCCCc1cc2c(s1)-n1c(C)nnc1CN=C2c1ccccc1Cl [Example 10, 2-(7-Acetylaminoheptyl)-4-(2-chlorophenyl)-9-methyl-6H-thieno[3,2-f][1,2,4]triazolo[4,3-a][1,4]diazepine] | 1700 |
| Cc1nnc2n1-c1sc(CCCN3CCCCC3)cc1C(c1ccccc1Cl)=NC2 [Example 45] | 300 |
| Cc1nnc2n1-c1sc(CCCN3CCOCC3)cc1C(c1ccccc1)=NC2 [Example 54] | 1100 |
| Cc1nnc2n1-c1ccc(Cl)cc1C(c1ccccc1Cl)=NC2 [Triazolam, triazolam, reference compound] | 9000 |
| Cc1nnc2n1-c1sc(CCCCCCCOS(C)(=O)=O)cc1C(c1ccccc1Cl)=NC2 [Example 23] | 900 |
| Cc1nnc2n1-c1sc(CCCCCCCOC(=O)C(C)(C)C)cc1C(c1ccccc1Cl)=NC2 [Example 27] | 200 |
| CC(=O)OCCCc1cc2c(s1)-n1c(Br)nnc1CN=C2c1ccccc1Cl [Example 13, 2-(3-Acetoxypropyl)-4-(2-chlorophenyl)-9-bromo-6H-thieno[3,2-f][1,2,4]triazolo[4,3-a][1,4]diazepine] | 300 |
| Cc1nnc2n1-c1sc(CCCN3CCOCC3)cc1C(c1ccccc1Cl)NC2 (stereo not shown) [Example 14l, 2-[3-(N-Morpholinyl)-n-propyl]-4-(2-chlorophenyl)-9-methyl-4,5-dihydro-6H-thieno[3,2-f][1,2,4]triazolo-[4,3-a][1,4]diazepine] | 600 |
| Cc1nnc2n1-c1sc(CCCO)cc1C(c1ccccc1Cl)NC2 (stereo not shown) [Example 98] | 2300 |

same assay, conditions: Table A, PAF 5×10^-8 M, human thrombocyte-rich plasma, read-out: IC50 (inhibition of blood platelets)

| Structure (SMILES) | IC50 [nM] |
| --- | --- |
| Cc1nnc2n1-c1ccc(Cl)cc1C(c1ccccc1)=NC2 [Alprazolam, alprazolam, reference compound] | 14000 |

— patent publication US4900729A, “Thieno-1,4-diazepines” (Boehringer Ingelheim KG, priority 1986, dated 1990)
